We go through nine compounds from patent US20240270821A1, “GIP/GLP1/GCG TRI-RECEPTOR AGONISTS AND USES THEREOF” (priority 2023, published 2024).

Where two headings read alike, the source gives them in different places. Starred links: 1 amine or outer side, 2 acyl side, 3 side chain; linkers in the order of their positions; H or OH if unused. Non-standard residues stand in square brackets, D forms with d. Residues, ends and D or L forms follow the SMILES beside them. Groups on a side chain read outwards from the residue. *: point of attachment. C20 diacid = O=C(O)CCCCCCCCCCCCCCCCCCC(=O)*; C18 diacid = O=C(O)CCCCCCCCCCCCCCCCC(=O)*; αMePhe(2-F) = C[C@](N)(Cc1ccccc1F)C(=O)O; γGlu = O=C(O)[C@H](CCC(=O)[*:2])N[*:1]; αMe4Pal = C[C@](N)(Cc1ccncc1)C(=O)O; αMeY = C[C@](N)(Cc1ccc(O)cc1)C(=O)O; αMeF = C[C@](N)(Cc1ccccc1)C(=O)O; 4Pal = N[C@@H](Cc1ccncc1)C(=O)O; αMeL = CC(C)C[C@](C)(N)C(=O)O; αMeS = C[C@](N)(CO)C(=O)O; Orn = NCCC[C@H](N)C(=O)O; Dap = NC[C@H](N)C(=O)O; AEEA = NCCOCCOCC(=O)O; Aib = CC(C)(N)C(=O)O

Common to all, as to format: cell-based
The target of assay [1] is T1, hGIPR (Homo sapiens, UniProt P48546).
T1 sequence (P48546 22-466): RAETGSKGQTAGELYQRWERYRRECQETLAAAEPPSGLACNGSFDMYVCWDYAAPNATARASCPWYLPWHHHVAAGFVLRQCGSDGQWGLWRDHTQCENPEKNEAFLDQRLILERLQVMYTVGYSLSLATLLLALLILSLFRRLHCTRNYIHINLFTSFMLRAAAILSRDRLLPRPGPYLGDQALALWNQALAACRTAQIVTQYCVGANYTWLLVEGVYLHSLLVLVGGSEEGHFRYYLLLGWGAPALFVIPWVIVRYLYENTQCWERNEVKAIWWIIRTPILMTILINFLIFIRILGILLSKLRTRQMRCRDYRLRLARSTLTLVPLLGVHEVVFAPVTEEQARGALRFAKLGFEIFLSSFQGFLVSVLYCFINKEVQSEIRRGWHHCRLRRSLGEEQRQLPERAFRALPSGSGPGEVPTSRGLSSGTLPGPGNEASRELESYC
The assay is described as follows: Functional cAMP activation in the presence of 0.1% casein (no HSA). As to conditions: read-out: Relative cAMP EC50, hGIPR.

Another assay addresses human GcgR (Homo sapiens, UniProt P47871). The assay is described as follows: Functional cAMP activity in the presence of 1% HSA. As to conditions: read-out: cAMP Rel EC50, hGcgR.
The target of assay [2] is T2, hGLP-1R (Homo sapiens, UniProt P43220). As to the kind of experiment: Functional cAMP activity in the presence of 1% HSA. As to conditions: read-out: cAMP Rel EC50, hGLP-1R.
T2 sequence (P43220 24-463): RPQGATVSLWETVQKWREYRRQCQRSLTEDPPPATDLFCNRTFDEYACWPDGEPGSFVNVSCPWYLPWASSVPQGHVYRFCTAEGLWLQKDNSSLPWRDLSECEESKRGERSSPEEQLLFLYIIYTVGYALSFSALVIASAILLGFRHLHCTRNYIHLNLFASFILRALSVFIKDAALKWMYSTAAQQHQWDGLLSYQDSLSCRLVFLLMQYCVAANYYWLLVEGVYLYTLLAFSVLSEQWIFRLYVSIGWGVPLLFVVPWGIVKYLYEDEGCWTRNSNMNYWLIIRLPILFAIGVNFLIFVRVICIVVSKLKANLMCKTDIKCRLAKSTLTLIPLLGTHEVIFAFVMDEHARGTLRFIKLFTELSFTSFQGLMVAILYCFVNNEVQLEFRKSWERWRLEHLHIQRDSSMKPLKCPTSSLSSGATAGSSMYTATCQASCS
In another assay the target is hGcgR (Homo sapiens, UniProt P47871). As to the kind of experiment: Functional cAMP activation in the presence of 0.1% casein (no HSA). As to conditions: read-out: Relative cAMP EC50, hGcgR.
hGcgR, sequence (P47871 26-477): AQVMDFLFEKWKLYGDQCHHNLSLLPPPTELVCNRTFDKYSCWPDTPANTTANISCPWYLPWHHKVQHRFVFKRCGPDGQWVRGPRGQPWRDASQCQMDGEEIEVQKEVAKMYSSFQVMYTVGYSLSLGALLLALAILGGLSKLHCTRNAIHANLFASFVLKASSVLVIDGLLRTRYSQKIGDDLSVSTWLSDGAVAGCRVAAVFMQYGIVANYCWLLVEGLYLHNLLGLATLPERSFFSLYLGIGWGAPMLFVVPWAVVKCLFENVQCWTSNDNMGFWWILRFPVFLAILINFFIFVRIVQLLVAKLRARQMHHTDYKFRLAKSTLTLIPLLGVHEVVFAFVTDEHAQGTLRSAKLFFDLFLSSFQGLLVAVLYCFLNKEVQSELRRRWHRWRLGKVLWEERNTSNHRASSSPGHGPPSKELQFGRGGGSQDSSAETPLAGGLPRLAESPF
The target of assay [3] is T2, hGLP-1R. Described as above. As to conditions: read-out: Relative cAMP EC50, hGLP-1R.
For assay [4], the target named is T1, hGIPR. The assay is described as follows: Functional cAMP activity in the presence of 1% HSA. As to conditions: read-out: cAMP Rel EC50, hGIPR.
[5] abbreviates: in the presence of 0.1% casein (no HSA), geometric mean.
The mark [6] stands for this setting: 0.1% casein, no HSA, geometric mean.
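For Relative cAMP EC50, hGIPR in this document: intracellular cAMP rise after 30 min at 37 °C read by HTRF against a standard curve, scaled between buffer alone (0%) and top control ligand concentration (100%), four-parameter fit.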
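For Relative cAMP EC50, hGLP-1R in this document: intracellular cAMP rise after 30 min at 37 °C read by HTRF, normalized between buffer only (0%) and maximal control ligand (100%), four-parameter variable-slope fit.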
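For Relative cAMP EC50, hGcgR in this document: intracellular cAMP rise after 30 min at 37 °C, read by HTRF against a cAMP standard curve, scaled from buffer only (0%) to maximal control ligand response (100%).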

human GcgR, sequence (P47871 26-477): as above

As usually defined, the EC50 is the midpoint of the concentration-response curve. “H-Y[Aib]QGT[αMePhe(2-F)]TSD[4Pal][αMeS]I[αMeL]LD[Orn]K([γGlu-γGlu-C18 diacid])AQ[Aib][Orn]FI[dE][αMeY]LQEGGPSSGEPPPSGTEEE-NH2 [Example 573]”: the EC50 on hGIPR [1] was found to be 0.0342 nM; on human GcgR, 388 nM; at hGLP-1R [2], 31.6 nM; on hGcgR, 4.02 nM; at hGLP-1R [3], 0.416 nM; on hGIPR [4], 3.15 nM.
With `CC[C@H](C)[C@H](NC(=O)[C@H](Cc1ccccc1)NC(=O)[C@H](CCCN)NC(=O)C(C)(C)NC(=O)[C@H](CCC(N)=O)NC(=O)[C@H](C)NC(=O)[C@H](CCCCNC(=O)COCCOCCNC(=O)CC[C@H](NC(=O)CCCCCCCCCCCCCCCCC(=O)O)C(=O)O)NC(=O)[C@H](CCCN)NC(=O)[C@H](CC(=O)O)NC(=O)[C@H](CC(C)C)NC(=O)[C@](C)(CC(C)C)NC(=O)[C@@H](NC(=O)[C@](C)(CO)NC(=O)[C@H](Cc1ccncc1)NC(=O)[C@H](CC(=O)O)NC(=O)[C@H](CO)NC(=O)[C@@H](NC(=O)[C@](C)(Cc1ccccc1F)NC(=O)[C@@H](NC(=O)CNC(=O)[C@H](CCC(N)=O)NC(=O)C(C)(C)NC(=O)[C@@H](N)Cc1ccc(O)cc1)[C@@H](C)O)[C@@H](C)O)[C@@H](C)CC)C(=O)N[C@H](CCC(=O)O)C(=O)N[C@@H](Cc1ccc(O)cc1)C(=O)N[C@@H](CC(C)C)C(=O)N[C@@H](CC(C)C)C(=O)N[C@@H](CCC(=O)O)C(=O)NCC(=O)NCC(=O)N1CCC[C@H]1C(=O)N[C@@H](CO)C(=O)N[C@@H](CO)C(=O)NCC(=O)N[C@@H](CCC(=O)O)C(=O)N1CCC[C@H]1C(=O)N1CCC[C@H]1C(=O)N1CCC[C@H]1C(=O)N[C@@H](CCC(=O)O)C(N)=O` [Example 460] (H-Y[Aib]QGT[αMePhe(2-F)]TSD[4Pal][αMeS]I[αMeL]LD[Orn]K([AEEA-γGlu-C18 diacid])AQ[Aib][Orn]FI[dE]YLLEGGPSSGEPPPE-NH2), the EC50 on hGIPR [1] was 0.0624 nM; on human GcgR, 142 nM; at hGLP-1R [2] it was 31.1 nM; at hGcgR it was 1.89 nM; on hGLP-1R [3], 0.636 nM; on hGIPR [4], 8.93 nM.
Turning to “H-Y[Aib]QGTFTSDFS[Dap][αMeL]LDKK([AEEA-γGlu-C18 diacid])AQ[Aib]AFIEYLIE[Aib]GPSSGAPPPSGS-NH2 [Example 800]”, the EC50 at hGIPR [1] (setting [5]) was determined as 0.283 nM; at human GcgR, 2500 nM; at hGLP-1R [2], 164 nM; on hGcgR (setting [5]) it was 21 nM; on hGLP-1R [3] (setting [5]) it was 0.486 nM; on hGIPR [4] it was 40.2 nM.
As to “H-Y[Aib]Q[dA]T[αMePhe(2-F)]TSD[4Pal]SI[αMeL]LD[Orn]K([AEEA-γGlu-C18 diacid])AQ[αMe4Pal]EFI[dE][αMeY]LVEGGPSSGAPPPSGS-NH2 [Example 1205]”, the concentration for a half-maximal effect (EC50) at hGIPR [1] (setting [6]) was 0.152 nM; at human GcgR, 325 nM; on hGLP-1R [2], 50 nM; on hGcgR (setting [6]), 3.33 nM; at hGLP-1R [3] (setting [6]), 0.523 nM; at hGIPR [4] it was 16.3 nM.
Regarding “H-Y[Aib]QGTFTSDFS[Orn][αMeL]LDKK([AEEA-γGlu-C20 diacid])AQ[Aib]AFIEYLLAGGPSSGAPPPSGS-NH2 [Example 76]”, the EC50 on hGIPR [1] (setting [5]) was found to be 0.196 nM; at human GcgR it was 2240 nM; on hGLP-1R [2], 436 nM; at hGcgR (setting [5]), 11.1 nM; at hGLP-1R [3] (setting [5]), 2.25 nM; at hGIPR [4] it was 45.5 nM.
Take “H-Y[Aib]QGTFTSD[4Pal]SQ[αMeL]LDKK([AEEA-γGlu-C18 diacid])AQ[αMe4Pal]AFIE[αMe4Pal]LIEGGPSSGAPPPSGS-NH2 [Example 948]”: the EC50 at hGIPR [1] (setting [5]) was determined as 0.17 nM; at human GcgR, 537 nM; at hGLP-1R [2] it was 304 nM; at hGcgR (setting [5]) it was 2.89 nM; at hGLP-1R [3] (setting [5]) it was 2.67 nM; on hGIPR [4] it was 22.9 nM.
For `CC[C@H](C)[C@H](NC(=O)[C@H](Cc1ccccc1)NC(=O)[C@H](CCCN)NC(=O)C(C)(C)NC(=O)[C@H](CCC(N)=O)NC(=O)[C@H](C)NC(=O)[C@H](CCCCNC(=O)COCCOCCNC(=O)CC[C@H](NC(=O)CCCCCCCCCCCCCCCCC(=O)O)C(=O)O)NC(=O)[C@H](CCCN)NC(=O)[C@H](CC(=O)O)NC(=O)[C@H](CC(C)C)NC(=O)[C@](C)(CC(C)C)NC(=O)[C@H](CO)NC(=O)[C@](C)(CO)NC(=O)[C@H](Cc1ccc(O)cc1)NC(=O)[C@H](CC(=O)O)NC(=O)[C@H](CO)NC(=O)[C@@H](NC(=O)[C@](C)(Cc1ccccc1)NC(=O)[C@@H](NC(=O)CNC(=O)[C@H](CCC(N)=O)NC(=O)C(C)(C)NC(=O)[C@@H](N)Cc1ccc(O)cc1)[C@@H](C)O)[C@@H](C)O)C(=O)N[C@H](CCC(=O)O)C(=O)N[C@@](C)(Cc1ccc(O)cc1)C(=O)N[C@@H](CC(C)C)C(=O)N[C@@H](CC(C)C)C(=O)N[C@@H](CCC(=O)O)C(=O)NCC(=O)NCC(=O)N1CCC[C@H]1C(=O)N[C@@H](CO)C(=O)N[C@@H](CO)C(=O)NCC(=O)N[C@@H](CCC(=O)O)C(=O)N1CCC[C@H]1C(=O)N1CCC[C@H]1C(=O)N1CCC[C@H]1C(=O)N[C@@H](CCC(=O)O)C(N)=O` [Example 389] (H-Y[Aib]QGT[αMeF]TSDY[αMeS]S[αMeL]LD[Orn]K([AEEA-γGlu-C18 diacid])AQ[Aib][Orn]FI[dE][αMeY]LLEGGPSSGEPPPE-NH2), the EC50 was found to be 0.0354 nM at hGIPR [1] (setting [5]); 889 nM at human GcgR; 18.9 nM at hGLP-1R [2]; 4.03 nM on hGcgR (setting [5]); 0.134 nM at hGLP-1R [3] (setting [5]); 18.3 nM at hGIPR [4].
For `CC[C@H](C)[C@H](NC(=O)[C@H](Cc1ccccc1)NC(=O)[C@H](C)NC(=O)C(C)(C)NC(=O)[C@H](CCC(N)=O)NC(=O)[C@H](C)NC(=O)[C@H](CCCCNC(=O)COCCOCCNC(=O)CC[C@H](NC(=O)CCCCCCCCCCCCCCCCC(=O)O)C(=O)O)NC(=O)[C@H](CCCCN)NC(=O)[C@H](CC(=O)O)NC(=O)[C@H](CC(C)C)NC(=O)[C@](C)(CC(C)C)NC(=O)[C@H](CCCN)NC(=O)[C@H](CO)NC(=O)[C@H](Cc1ccccc1)NC(=O)[C@H](CC(=O)O)NC(=O)[C@H](CO)NC(=O)[C@@H](NC(=O)[C@H](Cc1ccccc1)NC(=O)[C@@H](NC(=O)CNC(=O)[C@H](CCC(N)=O)NC(=O)C(C)(C)NC(=O)[C@@H](N)Cc1ccc(O)cc1)[C@@H](C)O)[C@@H](C)O)C(=O)N[C@@H](CCC(=O)O)C(=O)N[C@@H](Cc1ccc(O)cc1)C(=O)N[C@@H](CC(C)C)C(=O)N[C@@H](CC(C)C)C(=O)N[C@@H](CCC(=O)O)C(=O)N[C@H](C)C(=O)NCC(=O)N[C@@H](Cc1ccncc1)C(=O)N[C@@H](CO)C(=O)N[C@@H](CO)C(=O)NCC(=O)N[C@@H](C)C(=O)N1CCC[C@H]1C(=O)N1CCC[C@H]1C(=O)N1CCC[C@H]1C(=O)N[C@@H](CO)C(=O)NCC(=O)N[C@@H](CCC(=O)O)C(N)=O` [Example 252], the concentration for a half-maximal effect (EC50) on hGIPR [1] (setting [5]) was determined as 0.147 nM; at human GcgR, 528 nM; at hGLP-1R [2] it was 504 nM; on hGcgR (setting [5]), 2.61 nM; at hGLP-1R [3] (setting [5]), 3.54 nM; on hGIPR [4], 24.8 nM.
With “H-Y[Aib]QGT[αMePhe(2-F)]TSD[4Pal][αMeS]I[αMeL]LD[Orn]K([AEEA-γGlu-C18 diacid])AA[Aib]EFI[dE][αMeY]LIEGGPSSGAPPPSGTEE-NH2 [Example 725]”, the EC50 is 0.0126 nM at hGIPR [1]; 244 nM at human GcgR; 29.1 nM at hGLP-1R [2]; 1.49 nM on hGcgR; 0.258 nM at hGLP-1R [3]; 1.39 nM at hGIPR [4].
